From patent US5563277A, “Process for preparing benzyl-substituted rhodanine derivatives” (Eli Lilly and Company, priority 1994, dated 1996)

These molecules were tested on Acetic Acid Induced Colitis (assay: Inhibition of Acetic Acid Induced Colitis). Conditions: rat; 30 mg/kg oral, 2 h before 2 ml of 2.5% acetic acid intracolonic enema, second dose 6 h after enema; colon lesions scored 0-4 twenty four hours later vs vehicle.
Type: in vivo, Male Sprague-Dawley rats
Procedure: As noted above, the present invention provides a method of treating inflammatory bowel disease in mammals.
Male Sprague-Dawley rats from Charles River Laboratories, Portage, Mich. (weight approximately 250 g) were dosed orally with test compound (30 mg/kg) or vehicle (control). Two hours after dosing, each animal received 2 ml of a 2.5% acetic acid intracolonic enema via a cannula, the tip of which was placed 8 cm above the anal verge. This concentration of acetic acid produced a severe inflammatory response in the colon characterized by rectal bleeding, diarrhea, epithelial erosions and destructions of crypts and gland cells. Six hours from the enema the test animals were then given a second dose of test compound or vehicle. Twenty four hours later the test and control animals were killed and the distal ten centimeters of the colon were removed and opened longitudinally. The tissue lesions contained within the removed, opened, section of colon were scored by three independent blinded observers on a scale of 0 to 4 (zero=normal, four=worst inflammation). In each test group 5-7 rats were used. Test results from animals given test compound dissolved in vehicle were compared with test results from animals given vehicle alone in order to determine the percentage of lesion inhibition attributable to the test compound.

SMILES	% Inhibition (percentage of lesion inhibition) [%]
C[C@H](c1ccccc1)N1CS[C@H](Cc2cc(C(C)(C)C)c(O)c(C(C)(C)C)c2)C1=O [(3αR,5R)-5-[[3,5-bis(1,1-dimethylethyl)-4-hydroxyphenyl]methyl]-3-(1-phenylethyl)-4-thiazolidinone]	30
CC(C)(C)c1cc(CC(S)C(=O)O)cc(C(C)(C)C)c1O (stereo not shown) [3-[3,5-bis(1,1-dimethylethyl)-4-hydroxyphenyl]-2-mercaptopropanoic acid]	18
C[C@H](c1ccccc1)N1CS[C@@H](Cc2cc(C(C)(C)C)c(O)c(C(C)(C)C)c2)C1=O [(3αR, 5S)-5-[[3,5-bis (1,1-dimethylethyl)-4-hydroxyphenyl]methyl]-3-(1-phenylethyl)-4-thiazolidinone]	36
COC(=O)c1ccc(CN2CSC(Cc3cc(C(C)(C)C)c(O)c(C(C)(C)C)c3)C2=O)cc1 (stereo not shown) [5-[[3,5-bis(1,1-dimethylethyl)-4-hydroxyphenyl]methyl]-3-(carbomethoxybenzyl)-4-thiazolidinone]	11
